Assays:
Test in all cases: relative viability (nuclei count vs DMSO), 5 days (fraction); higher = more cells survive
Ponatinib + Luminespib = compound: Cc1ccc(C(=O)Nc2ccc(CN3CCN(C)CC3)c(C(F)(F)F)c2)cc1C#Cc1cnc2cccnn12 [Ponatinib] + CCNC(=O)c1noc(-c2cc(C(C)C)c(O)cc2O)c1-c1ccc(CN2CCOCC2)cc1 [Luminespib] (partner 0.01 µM)
Method in brief: (§1)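 The day after seeding in 1536-well plates, lung cancer cell lines were treated by pin tool with a single drug, or with a fixed anchor-drug dose together with five library-drug doses (not always all listed) in √10 steps. After 5 days, a combined fix-and-stain solution (final 0.05% Triton X-100, 1% formaldehyde, 1 ug/ml Hoechst) was added. Nuclei counted on 4× images gave relative viability as treated counts over vehicle counts, reported as the median of duplicate plates.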

Pazopanib + OSI-027 = compound: Cc1ccc(Nc2nccc(N(C)c3ccc4c(C)n(C)nc4c3)n2)cc1S(N)(=O)=O [Pazopanib] + COc1cccc2cc(-c3nc([C@H]4CC[C@H](C(=O)O)CC4)n4ncnc(N)c34)[nH]c12 [OSI-027] (partner 0.5 µM)
Method in brief: as §1

Pazopanib + AZD7762 = compound: Cc1ccc(Nc2nccc(N(C)c3ccc4c(C)n(C)nc4c3)n2)cc1S(N)(=O)=O [Pazopanib] + NC(=O)Nc1cc(-c2cccc(F)c2)sc1C(=O)N[C@H]1CCCNC1 [AZD7762] (partner 0.2 µM)
Method in brief: as §1

Ponatinib + Pictilisib = compound: Cc1ccc(C(=O)Nc2ccc(CN3CCN(C)CC3)c(C(F)(F)F)c2)cc1C#Cc1cnc2cccnn12 [Ponatinib] + CS(=O)(=O)N1CCN(Cc2cc3nc(-c4cccc5[nH]ncc45)nc(N4CCOCC4)c3s2)CC1 [Pictilisib] (partner 1 µM)
Method in brief: as §1

Row | Cell Line | relative viability (Ponatinib + Luminespib; first compound 0.002 µM) | relative viability (Ponatinib + Luminespib; first compound 0.006325 µM) | relative viability (Ponatinib + Luminespib; first compound 0.06325 µM) | relative viability (Ponatinib + Luminespib; first compound 0.2 µM) | relative viability (Pazopanib + OSI-027; first compound 0.01 µM) | relative viability (Pazopanib + OSI-027; first compound 0.03162 µM) | relative viability (Pazopanib + OSI-027; first compound 0.1 µM) | relative viability (Pazopanib + OSI-027; first compound 0.3162 µM) | relative viability (Pazopanib + OSI-027; first compound 1 µM) | relative viability (Pazopanib + AZD7762; first compound 0.1 µM) | relative viability (Pazopanib + AZD7762; first compound 0.3162 µM) | relative viability (Pazopanib + AZD7762; first compound 1 µM) | relative viability (Ponatinib + Pictilisib; first compound 0.002 µM) | relative viability (Ponatinib + Pictilisib; first compound 0.006325 µM) | relative viability (Ponatinib + Pictilisib; first compound 0.06325 µM) | relative viability (Ponatinib + Pictilisib; first compound 0.2 µM) | relative viability (Pazopanib + AZD7762; first compound 0.03162 µM) | relative viability (Pazopanib + AZD7762; first compound 0.01 µM)
1 | NCI-H1623 | 0.372 | 0.484 | 0.491 | 0.426 | 0.415 | 0.401 | 0.421 | 0.448 | 0.411 |  |  |  |  |  |  |  |  | 
2 | NCI-H1648 |  |  |  |  | 0.24 | 0.219 | 0.242 | 0.271 | 0.235 | 0.668 | 0.711 | 0.796 |  |  |  |  |  | 
3 | NCI-H1650 | 0.255 | 0.236 | 0.2 | 0.186 | 0.727 | 0.759 | 0.744 | 0.803 | 0.699 |  |  |  | 0.601 | 0.722 | 0.642 | 0.558 |  | 
4 | NCI-H1703 |  |  |  |  |  |  |  |  |  | 0.16 | 0.14 | 0.125 | 0.278 | 0.228 | 0.223 | 0.205 | 0.12 | 
5 | NCI-H2009 | 0.975 | 0.967 | 1.02 | 0.918 | 0.576 | 0.622 | 0.566 | 0.56 | 0.44 |  |  |  | 0.755 | 0.838 | 0.794 | 0.625 |  | 
6 | NCI-H2023 | 0.749 | 0.749 | 0.748 | 0.543 | 0.417 | 0.425 | 0.35 | 0.42 | 0.536 |  |  |  | 0.261 | 0.292 | 0.298 | 0.212 |  | 
7 | NCI-H2228 | 0.134 | 0.178 | 0.109 | 0.129 | 0.518 | 0.495 | 0.532 | 0.507 | 0.655 |  |  |  | 0.606 | 0.698 | 0.401 | 0.319 |  | 
8 | NCI-H2342 | 0.759 | 0.701 | 0.834 | 0.601 | 0.535 | 0.665 | 0.564 | 0.624 | 0.524 | 0.562 | 0.521 | 0.474 |  |  |  |  | 0.484 | 0.455
9 | SK-LU-1 | 0.196 | 0.213 | 0.2 | 0.175 | 0.452 | 0.345 | 0.385 | 0.395 | 0.352 |  |  |  | 0.518 | 0.63 | 0.523 | 0.377 |  | 
10 | SK-MES-1 | 0.761 | 0.89 | 1.01 | 0.745 | 0.643 | 0.629 | 0.654 | 0.585 | 0.578 |  |  |  | 0.392 | 0.409 | 0.569 | 0.48 |  | 
11 | SW 900 | 0.179 | 0.19 | 0.243 | 0.204 | 0.478 | 0.535 | 0.515 | 0.588 | 0.565 |  | 0.635 | 0.605 |  |  |  |  | 0.566 | 0.462
12 | SW 1573 | 0.266 | 0.321 | 0.25 | 0.259 | 0.566 | 0.728 | 0.684 | 0.715 | 0.765 |  |  |  | 0.489 | 0.515 | 0.526 | 0.566 |  | 
